Experimental data reported in publication PMC12143348, “Rapid and reversible fluorescent probe enables repeated snapshot imaging of AMPA receptors during synaptic plasticity” (Science Advances, 2025).
Entries after “also recorded” stand apart in the source; their conditions may differ.

Legend:
[1] = tested on: cultured hippocampal neurons; assay: cLTP stimulation and quantification of cell-surface AMPARs in spines of cultured hippocampal neurons; type: cell-based, mouse; details: [AP5] = 50 µM, [MK-801] = 20 µM, [KN93] = 5 µM, [BFA] = 25 µM; 200 µM glycine 15 min
Method: After washing the cells with Hepes-based ACSF, 100 nM PFQX1(AF488) was added to the dish. The cells were scanned to obtain “basal state” images. Then, the cells were washed three times with cLTP stimulation buffer (Hepes-based ACSF except for MgCl2 supplemented with 20 μM bicuculline and 1 μM strychnine) to remove PFQX1(AF488). cLTP was induced by 200 μM glycine in cLTP stimulation buffer for 15 min at room temperature. After washing the cells with cLTP incubation buffer (Hepes-based ACSF supplemented with 20 μM bicuculline and 1 μM strychnine), the cells were incubated for 60 min at room temperature. Last, 100 nM PFQX1(AF488) was added to the dish, and images were scanned to obtain “after cLTP” images. Inhibitors (50 μM AP5 and 20 μM MK-801 for NMDARs and 5 μM KN93 for CaMKII and 25 μM […] for exocytosis) were added to cLTP stimulation buffer and cLTP incubation buffer. To quantify the fluorescence intensity in spines, the average signal intensity of ROIs set on dendritic spines or dendritic shafts was calculated by ZEN blue software after subtracting background fluorescence. The fold change value was calculated using the following equation: (fluorescence intensity of “after cLTP” images)/(fluorescence intensity of “basal state” images).
To label endogenous AMPARs, 10 μM CAM2(TCO) in the culture medium was gently added to the hippocampal neurons on a glass-bottom dish to a final concentration of 2 μM CAM2(TCO). The cells were incubated for 2 hours at 37°C. In the second step, the culture medium was removed, and the cells were treated with 100 nM Tz(ST647) for 5 min in Hepes-based ACSF at room temperature. To quench excess Tz(ST647), 1 μM TCO-OH in Hepes-based ACSF was added. Then, the cells were treated with 100 nM PFQX1(AF488). Imaging was performed with confocal microscopy.

native AMPARs = assay: Concentration-dependent binding of PFQX1(AF488) to AMPARs in primary cultured hippocampal neurons; parameters: species or system mouse; details: 10 µM NBQX added after 100 nM PFQX1(AF488); cultured hippocampal neurons
Method: We modified the Banker’s culture method of hippocampal neurons ([59]). Glass-bottom dishes (14 mm φ, Matsunami) were coated with poly-D-lysine (Sigma-Aldrich) and washed three times with sterile dH2O. Hippocampi from 16-day-old ICR mouse embryos were aseptically dissected and digested with 0.25% (w/v) trypsin (Nacalai Tesque) for 20 min at 37°C. The cells were resuspended in Neurobasal Plus medium supplemented with 10% FBS, 1 mM GlutaMAX I (Invitrogen), penicillin (100 U/ml), and streptomycin (100 μg/ml) and filtered by Cell Strainer (100 μm, Falcon) followed by centrifugation at 1000 rpm for 5 min. The cells were resuspended in Neurobasal Plus medium supplemented with 2% of B-27 Plus Supplement, 1 mM GlutaMAX I (Invitrogen), penicillin (100 U/ml), and streptomycin (100 μg/ml) and plated at a density of 2 × 10^4 cells on glass-bottom dishes. Precultured cortical astrocytes on glass coverslips (13 mm φ) were transferred to the dishes so that astrocytes were faced to neurons. The cultures were maintained at 37°C in a 95% air and 5% CO2 humidified incubator. The culture medium was replaced every 7 days, and the neurons were used at 16 to 18 days in vitro (DIV).
Calcein Red AM (50 nM; AAT Bioquest) was added to the cultured neurons for 30 min at 37°C to visualize the intracellular region. The cells were washed with Hepes-based ACSF [25 mM Hepes (pH 7.4), 140 mM NaCl, 5 mM KCl, 1.3 mM CaCl2, 2 mM MgCl2, and 33 mM glucose], and 100 nM PFQX1(AF488) in Hepes-based ACSF was added to the dish.
For evaluating the concentration dependency of PFQX1(AF488), the cells were treated with 1 nM PFQX1(AF488). Then, PFQX1(AF488) in Hepes-based ACSF was added stepwise to the dish to a final concentration of 3, 10, 30, 100, 300, and 1000 nM. To quantify the concentration dependency after cLTP, the procedure described above was conducted after cLTP stimulation as described in the section “cLTP and quantification of cell-surface AMPARs.” The average intensity of ROIs set on spines was calculated by ZEN blue software after subtracting background fluorescence. The intensity was fitted with KaleidaGraph to calculate the equilibrium constant value using the following equation: a + (b − a)/(1 + (x/c)^d). The equilibrium constant is regarded as the Kd in this study.

AMPARs [2] = assay: Staining of AMPARs in acute cerebellar slices; type: binding, mouse; details: 10 µM NBQX with 30 nM PFQX1(AF488), 5 min; molecular layer
Method: following secondary antibodies were used: donkey anti-mouse CF568 conjugated (Sigma, […]
1:1,000) and anti-rabbit Alexa Fluor Plus 488 conjugated (Invitrogen, A32731, 1,000).
Imaging was performed with confocal microscopy.
With two-step labeling, the cells were labeled as described in “Two -step labeling and PFQX1(AF488)staining in cultured neurons,” followed by immunostaining.
In fig. S9A, the cells were incubated with 500 nM CellTracker Red CMPTX (Invitrogen) instead of Calcein Red AM for 30 min at 37 °C to visualize the intracellular region before the immunostaining.
Preparation and staining of cerebellar acute brain slices
C57BL/6J mice (3 weeks) were anesthetized with isoflurane, and their brains were isolated and immediately transferred to ice-cold cutting solution buffer (120 mM Choline Chloride, 3 mM KCl, 8 mM MgCl2, 1.25 mM NaH2PO4, 28 mM NaHCO3, 22 mM Glucose, and 0.5 mM Sodium ascorbate) gassed with 5% CO2 and 95% O2 and incubated for 5 min. Sagittal cerebellar slices were cut with a microslicer (Neo-linear slicer NLS-MT; DOSAKA EM) in cutting solution buffer and then incubated in ACSF […]
NaHCO3, 10 mM Glucose) gassed with 5% CO 2 and 95% O 2 at 37 °C.
Acute slices were transferred to glass bottom dishes and treated with 30 nM PFQX1(AF488) in HEPES-based ACSF for 5 min. […]
Scale bars, 500 µm. (F) Quantification of probe intensity in Ε. […]

GluA1–4 = assay: Fluorescence Ca2+ assay, inhibition of glutamate-induced response in HEK293T cells transfected with GluA1-4; type: cell-based, mouse; details: 30 µM glutamate-induced Ca2+ response; GluA1–4 in HEK293T cells
Method: HEK293T cells transfected with Ca2+-permeable GluA1–4 (GluA1 flip(Q), GluA2flip(Q), GluA3flip(Q) (Y454A/R461G), and GluA4flip(Q)) or GluK2(Q) were seeded on the 96 well plate. The cells were loaded with 5 µM Cal-520 AM (AAT Bioquest) in the culture medium for 2 h and washed with HBS using AquaMax 2000 (Molecular devices). The imaging experiment was carried out in an HBS buffer. For the fluorescence Ca2+ imaging, PFQX-amine was pretreated to the cells for 3 min followed by the addition of 30 µM glutamate with 100 µM cyclothiazide as a desensitization inhibitor for AMPARs and 100 µM kainic acid with 100 µM BPAM344 as a desensitization inhibitor for kainate receptors.
Fluorescent intensity of Cal-520 was obtained using FlexStation3 (Molecular devices), and analyzed with SoftMax Pro 7 (Molecular devices). ΔRFU was defined as the difference between the maximum intensity value after adding glutamate and the average intensity value before adding the glutamate. ΔRFU was fitted with KaleidaGraph.
Immunostaining of cultured neurons
The cultured hippocampal neurons were fixed with cold methanol for 5 min and washed with PBS three times. Fixed cells were incubated with Blocking One Histo (Nacalai Tesque) for 10 min. The cells were washed with PBS containing 0.05% Tween 20 (PBS-T) once and incubated with primary antibodies in PBS-T containing 5% Blocking One Histo at room temperature for 2 h. […]

AMPARs [3] = target: AMPARs; parameters: method as in earlier work; details: read-out: inhibition constant (Ki) for AMPARs; cited from earlier work
[4] = tested on: Halo-tag-fused GluA2 in HEK293T cells; assay: Exocytosis assay of AMPARs in HEK293T cells (Halo-tag pulse labeling); type: cell-based; details: 25 µM, 2 h at 37 °C
Method: Exocytosis assay of AMPARs in HEK293T cells
HEK293T cells expressing Halo-tag-GluA2 flip(Q)-3’UTR were treated with Halo-tag ligand-Alexa488 (HTL(AF488)) for 30 min at room temperature as a first pulse. After washing with DMEM three times, the cells were incubated with 25 µM brefeldin A or DMSO for 2 h at 37 °C in a 95% air and 5% CO2 humidified incubator. Then, HTL(AF647) was added to the dishes and incubated for 15 min at room temperature as a second pulse to visualize spontaneous exocytosed AMPARs. Labeled cells were fixed with 4% PFA for 15 min. The fluorescent images were obtained using confocal […]
General materials and methods for organic synthesis
All chemical reagents and solvents were purchased from commercial sources (FUJIFILM Wako pure chemical, TCI chemical, Sigma-Aldrich, Click Chemistry Tools, BroadPharm) and were used without further purification. Thin-layer chromatography (TLC) was performed on silica gel 60 F254 precoated aluminum sheets (Merck).
Chromatographic purification was performed by flash column chromatography on silica gel 60 N (neutral, 40–50 µm, Kanto Chemical). 1H-NMR spectra were recorded in deuterated solvents on an Avance III HD 300 MHz or 500 MHz (Bruker). […] High-resolution mass spectra were measured on a Compact (Bruker) equipped with electron spray ionization (ESI). […]

## C[C@]12N[C@H](Cc3ccccc31)c1ccccc12 [MK-801]
[1]
  effect on the increase in PFQX1(AF488) fluorescence in spines after cLTP stimulation: suppressed the increase in PFQX1(AF488) fluorescence

## COc1ccc(S(=O)(=O)N(CCO)c2ccccc2CN(C)C/C=C/c2ccc(Cl)cc2)cc1 [KN93]
[1]
  effect on the increase in PFQX1(AF488) fluorescence in spines after cLTP stimulation: suppressed the increase in PFQX1(AF488) fluorescence

## NS(=O)(=O)c1cccc2c1c([N+](=O)[O-])cc1[nH]c(=O)c(=O)[nH]c12 [NBQX, 2,3-dioxo-6-nitro-1,2,3,4-tetrahydrobenzo(f)quinoxaline-7-sulfonamide, reference compound]
Native AMPARs
  competitive inhibition of PFQX1(AF488) binding in neurons: fluorescent signals from the puncta disappeared
AMPARs [2]
  competitive inhibition of PFQX1(AF488) binding in cerebellar slices: significantly weakened

## O=c1[nH]c2cc(-n3cccc3)c(C(F)(F)F)cc2[nH]c1=O [PFQX, 6-pyrrolyl-7-trifluoromethyl-quinoxaline-2,3-dione]
GluA1–4
  antagonism of AMPAR subunits: antagonized AMPARs in a subunit-nonspecific manner
AMPARs [3]
  Ki: 170 nM

## C[C@H]1CCC/C=C/[C@@H]2C[C@H](O)C[C@H]2[C@H](O)/C=C/C(=O)O1 [brefeldin A]
[1]
  effect on the increase in PFQX1(AF488) fluorescence in spines after cLTP stimulation: inhibited the fluorescent increase in PFQX1(AF488)
[4]
  effect on spontaneous exocytosis of Halo-tag-fused AMPAR to the cell surface: markedly suppressed the spontaneous exocytosis

## NC(CCCP(=O)(O)O)C(=O)O (stereo not drawn) [AP5]
[1]
  effect on the increase in PFQX1(AF488) fluorescence in spines after cLTP stimulation: suppressed the increase in PFQX1(AF488) fluorescence; also recorded: increase in both PFQX1(AF488) and ST647 fluorescence was not observed
